Measurements as given in patent US20260000781A1, “FC CONJUGATES INCLUDING AN INHIBITOR OF CD73 AND USES THEREOF” (Cidara Therapeutics, Inc., priority 2022, published 2026).

Tests used:
[1] = biological target: T1, CD73 (Homo sapiens, UniProt P21589); assay: Cell-free CD73 enzyme inhibition assay; assay type: biochemical; settings: recombinant human CD73 0.1 ng/μL, AMP 100 μM, 25 min at 37° C. (FIG. 1A, 1B)
T1 sequence (P21589 27-549): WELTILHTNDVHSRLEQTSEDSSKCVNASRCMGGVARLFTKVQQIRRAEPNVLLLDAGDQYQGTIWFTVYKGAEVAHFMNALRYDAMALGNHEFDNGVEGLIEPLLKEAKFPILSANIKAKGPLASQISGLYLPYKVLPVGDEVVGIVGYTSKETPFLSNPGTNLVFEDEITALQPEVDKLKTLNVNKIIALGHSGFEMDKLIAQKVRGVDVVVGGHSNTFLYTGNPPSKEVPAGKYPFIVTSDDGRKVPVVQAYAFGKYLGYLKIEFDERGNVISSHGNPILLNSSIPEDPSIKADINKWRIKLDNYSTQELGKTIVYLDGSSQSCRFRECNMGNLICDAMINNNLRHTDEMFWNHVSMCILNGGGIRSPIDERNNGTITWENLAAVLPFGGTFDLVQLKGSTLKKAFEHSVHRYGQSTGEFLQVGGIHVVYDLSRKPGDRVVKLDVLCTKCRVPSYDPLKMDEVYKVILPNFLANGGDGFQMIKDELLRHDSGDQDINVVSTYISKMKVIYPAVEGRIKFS
Description: The cell-free CD73 enzyme inhibition assay was performed in a 96-well plate format using the CD73 Inhibitor Screening Assay Kit in accordance with the manufacturer's instructions (cat no. 72055, BPS Bioscience). […] Colorimetric detection reagent was then added (100 μL/well) and the free phosphate from the CD73 reaction was measured by reading the absorbance at 630 nm using the EnSpire multimode plate reader (PerkinElmer). Wells without test inhibitor (CD73 positive control) were included on each plate. Blank wells without test inhibitor and CD73 were subtracted from all wells. Percent CD73 inhibition versus inhibitor concentration was plotted using GraphPad Prism Version 8 and IC50's calculated using nonlinear regression analysis (Sigmoidal, 4 PL).
The cell-free CD73 enzyme inhibition assay was performed in a 96-well plate format using the CD73 Inhibitor Screening Assay Kit in accordance with the manufacturer's instructions (BPS Bioscience cat no. 72055). […] Colorimetric detection reagent was then added (100 μL/well) and the free phosphate from the CD73 reaction was measured by reading the absorbance at 630 nm using the EnSpire multimode plate reader (PerkinElmer). Wells without test inhibitor (CD73 positive control) were included on each plate. Blank wells without test inhibitor and CD73 were subtracted from all wells. Percent CD73 inhibition (y-axis) versus log10 inhibitor concentration (x-axis) was plotted using GraphPad Prism Version 8 and IC50's calculated using nonlinear regression analysis (Sigmoidal, 4 PL).

[2] = biological target: T2, CD73 expressed on the MDA-MB-231 cell surface (Homo sapiens, UniProt P21589); assay: Cell-based CD73 enzyme inhibition assay on MDA-MB-231 cells; settings: AMP 100 μM, 3 h (FIG. 2)
T2 construct: host or cells: MDA-MB-231
T2 sequence (P21589 27-549): T1 sequence (P21589 27-549)
Description: The cell-based CD73 enzyme inhibition assay was performed essentially as described above for the cell-free assay, with the following modifications.
(§1) The cell-based CD73 enzyme inhibition assay was performed essentially as described above for the cell-free assay, with the following modifications. MDA-MB-231 human breast adenocarcinoma cells (ATCC CRM-HTB-26) were seeded at 2×10^4 cells/well/100 μL into 96-well tissue culture-treated plates (Corning Costar cat no. 3596) and incubated overnight at 37° C., 5% CO2. […] The 96-well plate was then centrifuged at 125×g for 5 min at room temperature and ATP (25 μL/well, 100 μM final) was combined with supernatant (25 μL/well) in a white opaque 96-well plate (Corning Costar cat no. 3912).
as §1, with “3912). […] Percent CD73 inhibition (y-axis) versus log10 inhibitor concentration (x-axis) were plotted using GraphPad Prism Version 8 and IC50's calculated using nonlinear regression analysis (Sigmoidal, 4 PL).” for “3912).”

[3] = biological target: T3, surface-expressed CD73 on human T cells (Homo sapiens, UniProt P21589); assay: Human immune cell-based CD73 enzyme inhibition assay (T cells); settings: 2.5-3 h
T3 construct: 72400 (T cells); host or cells: human PBMCs / human T cells
T3 sequence (P21589 27-549): T1 sequence (P21589 27-549)
Description: (§2) The human immune cell-based CD73 enzyme inhibition assay was performed essentially as described above For the cell-free assay, with the following modifications. Human PBMCs (cat. no. HUMAN-PBMC-U-211140) or T cells (cat. no. 72400, Stem Cell Tech) were seeded at 8×10^3 cells/well into 96-well tissue culture-treated plates. […] Percent CD73 inhibition versus concentration were plotted using GraphPad Prism Version 8 and IC50's calculated using nonlinear regression analysis ([inhibitor]vs normalized response).

[4] = biological target: T4, surface-expressed CD73 on human PBMCs (Homo sapiens, UniProt P21589); assay: Human immune cell-based CD73 enzyme inhibition assay (PBMCs); settings: AMP 300 μM, 2.5-3 h
T4 construct: 72400 (T cells); host or cells: human PBMCs / human T cells
T4 sequence (P21589 27-549): T1 sequence (P21589 27-549)
Description: as §2

IC50 [1] | IC50 [2] | IC50 ([3]; T Cells - Experiment 1, AMP 300 μM) | IC50 ([3]; T Cells - Experiment 2, AMP 300 μM) | IC50 [4] | Structure (SMILES)
26.1 nM | 41.4 nM | – | – | – | C#CCOCCOCCOCCOCCOC1CCC2(CC1)CN(c1nc(Cl)nc3c1cnn3[C@@H]1O[C@H](COCP(=O)(O)O)[C@@H](O)[C@H]1O)C2 [Int-258]
– | – | 1.47 nM | 0.12 nM | 2.87 nM | O=C(CCOCCOCCOCCOCCn1cc(COCCOCCOCCOCCOC2CCC3(CC2)CN(c2nc(Cl)nc4c2cnn4[C@@H]2O[C@H](COCP(=O)(O)O)[C@@H](O)[C@H]2O)C3)nn1)Oc1c(F)cc(F)cc1F [Int-259]
